Data as given in US8389680B2, “Treatment of Aspergillus infections with alpha thymosin peptides” (SciClone Pharmaceuticals, Inc., priority 2003, dated 2013).
Entries after “also recorded” stand apart in the source; their conditions may differ.

Legend:
[1] = system: human MDC and PDC subsets; test: Activation of human MDC and PDC subsets: phagocytosis, phenotype, cytokine release; type: cell-based
Description: Blood CD 11c^+ myeloid DCs (MDCs) were generated from CD 14^+ mononuclear cells by magnetic cell sorting and cultured for 5 days in Iscove's modified medium, containing 10% fetal bovine serum, 50 micromolar 2-mercaptoethanol, sodium pyruvate (1 mM), 2 mM L-glutamine, HEPES (10 mM), and 50 micrograms/ml gentamycin in the presence of 50 ng/ml rHuman GM-CSF and 200 U/ml rHuman IL-4. Immature MDCs were cultured for 24 hours with 1000 ng/ml trimeric human CD40 ligand-leucine-zipper fusion protein to obtain mature DCs. CD 123^+ plasmacytoid DCs (PDCs) were isolated using the BDCA-4 isolation kit. Purity of CD 123^+ cells was >96%. For mature PDCs, immature DCs were cultured with the trimeric human CD40 ligand as above and 10 ng/ml IL-3. […] The expression of HLA Class II, CD80 and CD86 was high in both immature and mature DCs. Murine lung CD 11c^+ DCs (between 5 to 7% positive for CD8alpha and between 30 to 35% positive for Gr-1) were isolated by magnetic cell sorting. For phagocytosis, DCs were pre-exposed to 100 ng/ml TA1 for 60 minutes and subsequently incubated at 37° C. with Aspergillus conidia for an additional 60 minutes. The percentage of internalization was calculated and photographs were taken. In assessing functional maturation and cytokine determination, purified DCs were resuspended in Iscove's medium (with no serum but with polymixin B, to avoid non-specific activation by serum components and endotoxin) and pulsed with 100 ng/ml TA1 for 24 hours either alone or together with TLR ligands or unopsonized Aspergillus conidia. Cell surface phenotype was assessed by reacting samples with FITC- or PE-conjugated rat anti-mouse antibodies. Unrelated hisotype matched antibodies were used as control. The levels of TNF-alpha, IL-10, IL-12 p70, IFN-alpha and IL-8 in culture supernatants were determined by Kit ELISAs. The detection limits (pg/ml) of the assays were <3 (human) and <32 (murine) for TNF-alpha, <12 (murine) and <5 (human) for IL-10, <16 (murine) and <3 (human) for IL-12 p70 and <25 (human) IL-8. For human IFN-alpha <3 ng/ml. For enumeration of cytokine-producing cells, an ELISPOT assay was used on purified CD4^+ T cells and DCs from lungs.

TLR4/CD14 = target: T1, TLR4/CD14 (Homo sapiens, UniProt O00206); test: IL-8 production by TLR4/CD14-transfected HEK293 cells; type: cell-based
T1 construct: expressed in transfected cells; host or cells: HEK293
Description: The human embryonic kidney cell line HEK293, wild type or stably transfected with human TLR2, TLR9 and TLR4/CD1427 were cultured in low glucose Dulbecco's modified Eagle's medium supplemented with 10% FCS, HEPES ([…]), L-glutamine ([…]), and gentamycin (50 microgram/ml). Transfectants were additionally supplemented with puromycin (100 microgram/ml). For stimulation experiments, cells were cultured at a density of 3 to 5×10^5 cells/wells in 12-well tissue culture plates overnight. Cells were washed and stimulated with 100 ng/ml TA1 either alone or together with TLR ligands for 5 h before the assessment of IL-8 production in the supernatants.
The levels of TNF-alpha, IL-10, IL-12 p70, IFN-alpha and IL-8 in culture supernatants were determined by Kit ELISAs. The detection limits (pg/ml) of the assays were <3 (human) and <32 (murine) for TNF-alpha, <12 (murine) and <5 (human) for IL-10, <16 (murine) and <3 (human) for IL-12 p70 and <25 (human) IL-8. For human IFN-alpha <3 ng/ml. For enumeration of cytokine-producing cells, an ELISPOT assay was used on purified CD4^+ T cells and DCs from lungs.

A. fumigatus = test: BMT mice with invasive aspergillosis: survival, fungal growth in lungs (chitin assay), lung histology; type: in vivo
Description: For infection with A. fumigatus, mice were intranasally injected for 3 consecutive days with a suspension of 2×10^7 conidia/20 microliter saline. For the quantification of fungal growth in the lungs, the chitin assay was used. The chitin content was expressed as micrograms of glucosamine per organ. The glucosamine content of lungs from uninfected mice was used as a negative control ranging between 0.80 and 2.25 microgram glucosamine/organ. For histological analysis, lungs were excised and immediately fixed in formalin. Sections (3 to 4 micron) of paraffin-embedded tissues were stained with the periodic acid-Schiff procedure. Thymosin alpha 1 (TA1) and the scrambled polypeptide are as purified sterile lyophilized acetylated polypeptides with endotoxin levels less than 0.03 pg/ml, by a standard limulus lysate assay. The sequences were as follows: Ac-[…]O (Thymosin alpha 1, SEQ ID NO.: 1) and Ac-[…]OH ([…]). Their lyophilized powders were reconstituted in sterile water.
The treatments were as follows; in BMT-mice, TA1, at different doses administered intraperitoneally, sthymosin alpha 1, 400 microgram/kg administered intraperitoneally or human recombinant G-CSF 250 microgram/kg administered intravenously, were given daily beginning the day of the BM infusion, in concomitance with the infection and continuing for an additional 3 days. Amphotericin B was given daily for 3 days in concomitance with the infection, at a dose of 4000 microgram/kg, administered intraperitoneally. This dose would cure IA in cyclophosphamide-treated mice. Cyclophosphamide, 150 mg/kg administered intraperitoneally, was given a day before the infection. In cyclophosphamide-treated mice, 400 microgram/kg TA1 was given intraperitoneally for 5 consecutive days beginning the day of the infection.
C57BL6 mice were exposed to a lethal dose of 9 Gy and infused with T cell-depleted donor cells from BALB/c mice.

[2] = mice treated with both agents (TA1 and amphotericin B)

T1 sequence (O00206 24-839): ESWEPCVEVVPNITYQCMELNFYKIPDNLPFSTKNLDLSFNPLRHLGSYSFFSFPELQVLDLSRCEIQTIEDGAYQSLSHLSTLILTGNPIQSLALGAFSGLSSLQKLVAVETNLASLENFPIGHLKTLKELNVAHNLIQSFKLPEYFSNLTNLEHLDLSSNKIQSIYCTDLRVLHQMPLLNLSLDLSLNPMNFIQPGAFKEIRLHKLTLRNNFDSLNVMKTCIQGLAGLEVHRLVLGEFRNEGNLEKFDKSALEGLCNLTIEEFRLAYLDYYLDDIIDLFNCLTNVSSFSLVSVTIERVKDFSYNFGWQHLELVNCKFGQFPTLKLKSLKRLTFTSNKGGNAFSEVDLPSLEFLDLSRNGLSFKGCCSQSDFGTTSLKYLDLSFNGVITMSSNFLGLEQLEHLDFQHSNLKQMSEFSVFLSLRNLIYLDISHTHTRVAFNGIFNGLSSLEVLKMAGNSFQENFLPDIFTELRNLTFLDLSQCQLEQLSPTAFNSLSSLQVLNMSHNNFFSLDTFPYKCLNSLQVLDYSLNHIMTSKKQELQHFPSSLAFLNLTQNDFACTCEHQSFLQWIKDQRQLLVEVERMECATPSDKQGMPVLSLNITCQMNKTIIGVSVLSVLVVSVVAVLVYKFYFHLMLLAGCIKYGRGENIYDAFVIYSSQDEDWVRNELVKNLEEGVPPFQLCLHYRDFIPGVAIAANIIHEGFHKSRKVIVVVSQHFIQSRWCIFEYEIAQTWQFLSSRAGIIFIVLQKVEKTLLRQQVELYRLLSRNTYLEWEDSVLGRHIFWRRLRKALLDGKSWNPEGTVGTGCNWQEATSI

For “Ac-Ser-Asp-Ala-Ala-Val-Asp-Thr-Ser-Ser-Glu-Ile-Thr-Thr-Lys-Asp-Leu-Lys-Glu-Lys-Lys-Glu-Val-Glu-Glu-Ala-Glu-Asn-O (Ac-SDAAVDTSSEITTKDLKEKKEVEEAEN-OH) [TA1, naturally occurring thymic peptide]”, the “activation of human MDC and PDC subsets” value ([1]; 100 ng/ml) was “activates”, the “phagocytic activity of immature DCs” value ([1]; Aspergillus conidia, 100 ng/ml pre-exposure 60 minutes) was “increased” and the IFN-alpha production ([1]; PDCs, in response to the TLR9 ligand CpG) was “significantly potentiated”. The DC morphology ([1]; immature MDCs) was “more cytoplasmic projections”, the “release of IL-12 p70” value ([1]; immature MDCs, in response to conidia) was “significantly increase” and the “release of IL-12 p70” value ([1]; immature MDCs, in response to zymosan) was “significantly increase”. For the same substance, the “release of IL-10” value ([1]; immature PDCs, in response to conidia) was “significantly increase”, the “HLA Class II antigens and costimulatory molecule expression” value ([1]; in response to conidia) was “up-regulate” and the “production of IL-8” value (TLR4/CD14; TA1 alone) was “did not induce”. The “production of IL-8” value (TLR4/CD14; in response to the TLR4 ligand LPS) was “did not induce”, the “protection compared with amphotericin B” value (A. fumigatus; 200 and 400 microgram/kg TA1, amphotericin B 4000 microgram/kg) was “superior to that of amphotericin B” and the “survival (full protection)” value (A. fumigatus; 200 microgram/kg TA1) was over 60 days. The “survival (full protection)” value (A. fumigatus; 400 microgram/kg TA1) was over 60 days, the “fungal growth in the lungs” value (A. fumigatus; BMT mice with IA) was “dose-responsive reduction; also recorded: reduced fungal growth” and the survival (A. fumigatus; BMT mice with IA) was “increased survival”. The “effect on protection, dose relation” value (A. fumigatus; BMT mice with IA, different doses) was “dose-dependent”, the “cure of BMT mice with IA” value (A. fumigatus; intraperitoneally, daily) was “complete cure; also recorded: able to cure” and the lung pathology (A. fumigatus; lung sections, periodic acid-Schiff) was “decreases lung pathology”. The “effect on therapeutic efficacy of amphotericin B” value (A. fumigatus; mice treated with both agents) was “increases the therapeutic efficacy of amphotericin B”, the fungal burden (A. fumigatus; [2]) was “decreased fungal burden” and the survival (A. fumigatus; [2]) was “increased survival”.
